From US11819483B2, “Combination therapy to treat urea cycle disorders” (Baylor College of Medicine, priority 2017, dated 2023)
Read-outs that look alike come from different tables or passages of the source. Marks after values point to notes of the source that are not given here.

Assays:
[1] = Urinary excretion of phenylbutyrate, benzoate and their conjugated products; nitrogen conjugation in 24 h urine; details: for Total N excreted as conjugated products, % test meal: fraction of nitrogen content of test meal; for efficacy of conjugation (percent of dose recovered as conjugate in 24 h urine): given as sole treatments, highest dose; for Conjugation efficacy: nitrogen conjugated divided by amount of drug provided
Protocol: (§1) This was a randomized, three-arm, crossover study. Each arm was completed over a four-day period with a washout period of at least 7 days between any two of the treatment arms (FIG. 1). […] The treatments were designed to provide isomolar amount of drugs and the total daily dose was administered in three equally divided doses.
(§2) On day 1 of study arm 1, detailed medical history review and physical examination were performed. Complete blood count, comprehensive metabolic panel, plasma ammonia, and urinalysis (safety laboratory measurements) were performed. Urine pregnancy test was performed on all females. Meals prepared at the CNRC to provide 0.8 g·kg^−1·day^−1 protein and 32 kcal·kg^−1·day^−1 were given for next three days. The standardized protein and caloric intake allowed for comparison of nitrogen excretion among the three arms. Subjects were randomized to a predetermined treatment sequence and the first dose of the appropriate medication was administered under supervision. Subjects took the study medication with meals for three days (08:00 breakfast; 13:00 lunch; 19:00 dinner) (FIG. 1). […] On day 3, subjects omitted the 19:00 dose of the medication to prevent interference with the analysis on day 4 from metabolite conjugates from the previous day. On day 4, fasting blood sample was obtained for the determination of plasma amino acids and urea concentrations, background isotopic enrichments, basic metabolic profile, complete blood count, and plasma concentrations of phenylbutyrate, benzoate, PAGN, and HA. Urine was collected for measurements of urea, phenylbutyrate, benzoate, PAGN, and HA. At 0 hours, the test meal containing half of the daily dietary allowance of protein (0.4 g·kg^−1) was provided by a commercial liquid meal replacement (Ensure Plus, Abbott, Abbot Park, Ill.) and ^15N labeled spirulina (40 mg·kg^−1; ISOTEC, Miamisburg, Ohio). […] A dose of 40 mg·kg^−1 labeled ^15N-labeled spirulina was estimated to result in dietary enrichment of ˜5 mole percent excess. The morning meal, which was ingested in ˜10 minutes, was followed by a dose of study medication and an intravenous bolus dose of urea tracer, [^13C^18O]urea (6 mmol/subject; ISOTEC, Miamisburg, Ohio). Blood samples to determine concentrations and isotopic enrichments of the drugs and their conjugated products, as well as amino acids and urea were collected every 30 minutes for the first four hours and then hourly between hours 4 and 8 (FIG. 1). Urine was collected in four 2-hour batched periods during the eight hour admission period. […] The procedures for the study arms 2 and 3 were identical to those performed in arm 1.
(§3) Plasma and urinary drugs and their conjugated products as well as urea and amino acids were determined by mass spectrometry and quantitated based on the dilution of labeled internal standards. Total urinary nitrogen was determined using the micro-Kjeldahl method.
Plasma and urinary phenylbutyrate, PAA, and benzoate were determined as their pentafluorobenzyl derivatives by NCI-GC-MS; . [^2H5] […] 4-phenylbutyric acids (C/D/N Isotopes, Quebec, Canada) were used as internal standards. Underivatized PAGN and HA were measured by HESI LC-MS/MS; [^2H5] PAGN and [^2H5] HA (C/D/N Isotopes, Quebec, Canada) were used as internal standards.
Accordingly, these background values were subtracted from the values obtained during the treatment with phenylbutyrate and benzoate. The total amount of nitrogen conjugated was expressed as fraction of the test meal, by dividing by the total nitrogen content of the test meal. The conjugation of dietary nitrogen was calculated as the amount of ^15N conjugated by multiplying the total amount of nitrogen conjugated by the respective ^15N enrichment. For PAGN, the labeling of the amino and amido group were considered.

[2] = day 4
[3] = Urea metabolism and total urinary nitrogen excretion; assay type: in vivo, human; parameters: Urinary urea-^15N: unit not given here; details: for Urinary N: N intake 9.81 g/d; for Urea production: [^13C^18O]urea tracer, day 4; for ^15N as % of test meal: urinary urea ^15N
Protocol: as §1, §2, §3
Plasma amino acids concentrations and enrichments were determined by HESI LC-MS/MS. A cell free U-[^13C^15N] amino acid mix was used as internal standard. Total urinary nitrogen was determined using the micro-Kjeldahl method.

[4] = clinical; details: human, in vivo
[5] = plasma
[6] = 24 h urine, ^15N labeled test meal
[7] = 24 h urine, background subtracted

Compound	urinary excretion of unconjugated drug ([1]; 24 h urine)	Total 15N in conjugated products, % test meal [1, 6]	Total N excreted as conjugated products, % test meal ([1]; 24 h urine)	efficacy of conjugation (percent of dose recovered as conjugate in 24 h urine) [1]	Conjugation efficacy ([1]; gram basis)	Conjugation efficacy ([1]; molar basis)	% N excreted from daily intake ([3]; 24 h urine)	Urea N as a % total urinary N ([3]; 24 h urine)	Urinary Urea N ([3]; 24 h urine)	Urinary N ([3]; 24 h urine)	Urea production [3]	^15N as % of test meal ([3]; 24 h urine)	further results
O=C([O-])c1ccccc1.[Na+] [NaBz, sodium benzoate]	negligible	1.51 % test meal	4.65 ^b % test meal	~65%	64.2^b mg N/g drug	9.25^b mg N/mmol drug	65.1%	65.1%	4.20 g/day	6.38 g/day	197 µmol/kg/h	14.7%	Urinary excretion of Bz ([1]; 24 h urine): 6.5 μmol/24 h; Urinary excretion of Bz, % of dose ([1]; 24 h urine): 0.02 % of dose; Urinary HA (Conjugated ^15N Products) [1, 6]: 253.9 μmol/24 h; Urinary excretion of HA [1, 7]: 16.4 mmol/24 h; Urinary excretion of HA, % of dose ([1]; 24 h urine, percent of benzoate dose recovered as HA): 66.1 % of dose; Bz AUC0-8 ([2]; plasma benzoate, 0 to 8 h): 301.7 µmol/L; Bz Tmax ([2]; plasma benzoate): 1.6^b h; Bz Tmax ([2]; plasma benzoate, listed as benzoate): ~1.5 h; Benzoate Cmax and AUC0-8, NaBz arm relative to MIX arm ([2]; plasma): 4-5 times; Cmax ([2]; read-out: Bz Cmax, plasma benzoate): 217 µM
O=C(O)Cc1ccccc1 [PAA, phenylacetate]	negligible												
O=C(O)CNC(=O)c1ccccc1 [hippuric acid]													Tmax [4]: 2.2 h
sodium phenylbutyrate [NaPB]	negligible	1.62 % test meal	8.74 ^a % test meal	~65%	92.5^ab mg N/g drug	17.2^a mg N/mmol drug	65.6%	63.6%	4.16 g/day	6.47 g/day	192 µmol/kg/h	15.2%	leucine AUC0-8 ([5]; response to phenylbutyrate inclusion in the treatment, P=0.032): reduction; tryptophan AUC0-8 ([5]; response to phenylbutyrate, P<0.001): reduction; Total N excreted as conjugated products ([1]; 24 h urine): 30.7 mmol/24 h; Urinary excretion of PAA ([1]; 24 h urine): 40.3 μmol/24 h; Urinary excretion of PAA, % of dose ([1]; 24 h urine): 0.16 % of dose; Urinary excretion of PB ([1]; 24 h urine): 32.3 μmol/24 h; Urinary excretion of PB, % of dose ([1]; 24 h urine): 0.13 % of dose; Urinary 2&5-[^15N] PAGN [1, 6]: 38.9 μmol/24 h; Urinary 2-[^15N] PAGN [1, 6]: 43.9 μmol/24 h; Urinary excretion of PAGN [1, 7]: 15.3 mmol/24 h; Urinary excretion of PAGN, % of dose ([1]; 24 h urine, percent of phenylbutyrate dose recovered as PAGN): 61.5 % of dose; Urinary urea-^15N [3, 6]: 37.0
